Legend:
Type in all cases: functional
SK-MEL-28 = experiment: Growth inhibition of human SK-MEL-28 cells assessed as cell growth at 10 uM incubated for 48 hrs by sulforhodamine B assay relative to control; conditions: SK-MEL-28, 48 h, read-out: Activity
LOX IMVI = experiment: Growth inhibition of human LOXIMVI cells assessed as cell growth at 10 uM incubated for 48 hrs by sulforhodamine B assay relative to control; conditions: read-out: Activity
U-251 = experiment: Growth inhibition of human U251 cells assessed as cell growth at 10 uM incubated for 48 hrs by sulforhodamine B assay relative to control; conditions: U-251, 48 h, read-out: Activity
SF-295 = experiment: Growth inhibition of human SF295 cells assessed as cell growth at 10 uM incubated for 48 hrs by sulforhodamine B assay relative to control; conditions: SF-295, 48 h, read-out: Activity
SNB-75 = experiment: Growth inhibition of human SNB75 cells assessed as cell growth at 10 uM incubated for 48 hrs by sulforhodamine B assay relative to control; conditions: SNB-75, 48 h, read-out: Activity
OVCAR-3 = experiment: Growth inhibition of human OVCAR3 cells assessed as cell growth at 10 uM incubated for 48 hrs by sulforhodamine B assay relative to control; conditions: OVCAR-3, 48 h, read-out: Activity
SK-MEL-2 = experiment: Growth inhibition of human SK-MEL-2 cells assessed as cell growth at 10 uM incubated for 48 hrs by sulforhodamine B assay relative to control; conditions: SK-MEL-2, 48 h, read-out: Activity
HT-29 = experiment: Growth inhibition of human HT-29 cells assessed as cell growth at 10 uM incubated for 48 hrs by sulforhodamine B assay relative to control; conditions: HT-29, 48 h, read-out: Activity
UO-31 = experiment: Growth inhibition of human UO31 cells assessed as cell growth at 10 uM incubated for 48 hrs by sulforhodamine B assay relative to control; conditions: UO-31, 48 h, read-out: Activity
OVCAR-4 = experiment: Growth inhibition of human OVCAR4 cells assessed as cell growth at 10 uM incubated for 48 hrs by sulforhodamine B assay relative to control; conditions: OVCAR-4, 48 h, read-out: Activity
EKVX = experiment: Growth inhibition of human EKVX cells assessed as cell growth at 10 uM incubated for 48 hrs by sulforhodamine B assay relative to control; conditions: read-out: Activity
RXF 393 = experiment: Growth inhibition of human RXF393 cells assessed as cell growth at 10 uM incubated for 48 hrs by sulforhodamine B assay relative to control; conditions: RXF 393, 48 h, read-out: Activity
UACC-257 = experiment: Growth inhibition of human UACC257 cells assessed as cell growth at 10 uM incubated for 48 hrs by sulforhodamine B assay relative to control; conditions: UACC-257, 48 h, read-out: Activity
DU-145 = experiment: Growth inhibition of human DU145 cells assessed as cell growth at 10 uM incubated for 48 hrs by sulforhodamine B assay relative to control; conditions: DU-145, 48 h, read-out: Activity
HOP-92 = experiment: Growth inhibition of human HOP92 cells assessed as cell growth at 10 uM incubated for 48 hrs by sulforhodamine B assay relative to control; conditions: HOP-92, 48 h, read-out: Activity
MDA-MB-435 = experiment: Growth inhibition of human MDA-MB-435 cells assessed as cell growth at 10 uM incubated for 48 hrs by sulforhodamine B assay relative to control; conditions: MDA-MB-435, 48 h, read-out: Activity
SK-MEL-5 = experiment: Growth inhibition of human SK-MEL-5 cells assessed as cell growth at 10 uM incubated for 48 hrs by sulforhodamine B assay relative to control; conditions: SK-MEL-5, 48 h, read-out: Activity
T47D = experiment: Growth inhibition of human T47D cells assessed as cell growth at 10 uM incubated for 48 hrs by sulforhodamine B assay relative to control; conditions: read-out: Activity
MCF7 = experiment: Growth inhibition of human MCF7 cells assessed as cell growth at 10 uM incubated for 48 hrs by sulforhodamine B assay relative to control; conditions: MCF7, 48 h, read-out: Activity
PC-3 = experiment: Growth inhibition of human PC3 cells assessed as cell growth at 10 uM incubated for 48 hrs by sulforhodamine B assay relative to control; conditions: PC-3, 48 h, read-out: Activity
HOP-62 = experiment: Growth inhibition of human HOP62 cells assessed as cell growth at 10 uM incubated for 48 hrs by sulforhodamine B assay relative to control; conditions: HOP-62, 48 h, read-out: Activity
RPMI-8226 = experiment: Growth inhibition of human RPMI8226 cells assessed as cell growth at 10 uM incubated for 48 hrs by sulforhodamine B assay relative to control; conditions: RPMI-8226, 48 h, read-out: Activity
COLO 205 = experiment: Growth inhibition of human COLO205 cells assessed as cell growth at 10 uM incubated for 48 hrs by sulforhodamine B assay relative to control; conditions: COLO 205, 48 h, read-out: Activity
BT-549 = experiment: Growth inhibition of human BT549 cells assessed as cell growth at 10 uM incubated for 48 hrs by sulforhodamine B assay relative to control; conditions: BT-549, 48 h, read-out: Activity
SW-620 = experiment: Growth inhibition of human SW620 cells assessed as cell growth at 10 uM incubated for 48 hrs by sulforhodamine B assay relative to control; conditions: SW-620, 48 h, read-out: Activity
SF-539 = experiment: Growth inhibition of human SF539 cells assessed as cell growth at 10 uM incubated for 48 hrs by sulforhodamine B assay relative to control; conditions: SF-539, 48 h, read-out: Activity
786-0 = experiment: Growth inhibition of human 786-0 cells assessed as cell growth at 10 uM incubated for 48 hrs by sulforhodamine B assay relative to control; conditions: 786-0, 48 h, read-out: Activity
Malme-3M = experiment: Growth inhibition of human MALME-3M cells assessed as cell growth at 10 uM incubated for 48 hrs by sulforhodamine B assay relative to control; conditions: read-out: Activity
K562 = experiment: Growth inhibition of human K562 cells assessed as cell growth at 10 uM incubated for 48 hrs by sulforhodamine B assay relative to control; conditions: K562, 48 h, read-out: Activity
NCI/ADR-RES = experiment: Growth inhibition of human NCI/ADR-RES cells assessed as cell growth at 10 uM incubated for 48 hrs by sulforhodamine B assay relative to control; conditions: read-out: Activity
HCC 2998 = experiment: Growth inhibition of human HCC2998 cells assessed as cell growth at 10 uM incubated for 48 hrs by sulforhodamine B assay relative to control; conditions: HCC 2998, 48 h, read-out: Activity
HCT-15 = experiment: Growth inhibition of human HCT15 cells assessed as cell growth at 10 uM incubated for 48 hrs by sulforhodamine B assay relative to control; conditions: HCT-15, 48 h, read-out: Activity
OVCAR-8 = experiment: Growth inhibition of human OVCAR8 cells assessed as cell growth at 10 uM incubated for 48 hrs by sulforhodamine B assay relative to control; conditions: OVCAR-8, 48 h, read-out: Activity

Structure (SMILES)	growth at 10 µM (SK-MEL-28) [%]	growth at 10 µM (LOX IMVI) [%]	growth at 10 µM (U-251) [%]	growth at 10 µM (SF-295) [%]	growth at 10 µM (SNB-75) [%]	growth at 10 µM (OVCAR-3) [%]	growth at 10 µM (SK-MEL-2) [%]	growth at 10 µM (HT-29) [%]	growth at 10 µM (UO-31) [%]	growth at 10 µM (OVCAR-4) [%]	growth at 10 µM (EKVX) [%]	growth at 10 µM (RXF 393) [%]	growth at 10 µM (UACC-257) [%]	growth at 10 µM (DU-145) [%]	growth at 10 µM (HOP-92) [%]	growth at 10 µM (MDA-MB-435) [%]	growth at 10 µM (SK-MEL-5) [%]	growth at 10 µM (T47D) [%]	growth at 10 µM (MCF7) [%]	growth at 10 µM (PC-3) [%]	also measured
COc1cc2cc(Oc3ccc(NC(=O)Nc4ccc(C(F)(F)F)cc4)cc3)c(C)nc2cc1OC	58.4	56.4	15	56	41	67	76.7	44.6	87.6	49	75.7	6.29	66.5	71.4	56.3	80.3	47.4	57.5	84.3	48.3	growth at 10 µM (HOP-62): 18.8%; growth at 10 µM (RPMI-8226): 52.7%; growth at 10 µM (COLO 205): 40.4%; growth at 10 µM (BT-549): 113%; growth at 10 µM (SW-620): 75.3%; growth at 10 µM (SF-539): 96.9%; growth at 10 µM (786-0): 74.9%; growth at 10 µM (Malme-3M): 82.9%; growth at 10 µM (K562): 57.1%; growth at 10 µM (NCI/ADR-RES): 64.1%; growth at 10 µM (HCC 2998): 94.8%; growth at 10 µM (HCT-15): 75.4%; growth at 10 µM (OVCAR-8): 37.8%
Cc1nc2cc(O)c(O)cc2cc1Oc1ccc(NC(=O)Nc2ccc(Cl)c(Cl)c2)cc1	79.1	0.46	41.4	95.9	75.8	67.9	77.7	48	58.6	67.7	98.5	20.4	88.5	60.3	37.5	54.2	-42.2	62.2	76.2	39.3	growth at 10 µM (HOP-62): 35.7%; growth at 10 µM (RPMI-8226): 75.7%; growth at 10 µM (COLO 205): 34.7%; growth at 10 µM (BT-549): 82.2%; growth at 10 µM (SW-620): 49.3%; growth at 10 µM (SF-539): 56.9%; growth at 10 µM (786-0): 103%; growth at 10 µM (Malme-3M): 85.2%; growth at 10 µM (K562): 53.9%; growth at 10 µM (NCI/ADR-RES): 59%; growth at 10 µM (HCC 2998): 93.4%; growth at 10 µM (HCT-15): 37.2%; growth at 10 µM (OVCAR-8): 47.7%

Source: ChEMBL document CHEMBL3994622, “Design and synthesis of new RAF kinase-inhibiting antiproliferative quinoline derivatives. Part 2: Diarylurea derivatives” (Eur J Med Chem, 2017)
